Source: patent publication US4277465A, “Adjuvant for promoting absorption of therapeutically active substances through the digestive tract” (Kyoto Yakuhin Kogyo Kabushiki Kaisha, priority 1978, dated 1981)

Experiments:
[1] = Rectal ointment of CET-Na with enamine derivative, blood concentration; assay type: in vivo, rabbit; settings: CET; rectal ointment CET.Na 20%, enamine derivative 10%; dose 50 mg CET.Na/kg
Method: Cephalothin sodium (briefly CET-Na), a drug which is sparingly absorbed from the rectum, was selected for a test. Thus, CET-Na was dispersed in liquid paraffin-white vaseline base to prepare rectal ointment. The ointment was administered to rabbits by the rectal route. […] The blood concentration was measured in conformity with the biological assay method in the Antibiotic Standard of Japan. […]

[2] = Stability in aqueous solution (half-life of enamine derivatives); assay type: physicochemical; settings: pH 7.4 phosphate buffer, μ 0.15, 25° C., UV absorption spectrometry; "stable" = enamine structure retained even after 6 hours
Method: To examine the stability in water of the enamine derivatives (I) obtained above, some representative compounds were selected and their half-lives [t 0.5 (min.)] in pH 7.4 phosphate buffer (μ: 0.15, temp.: 25° C.) were determined by ultraviolet absorption spectrometry. In the Table, "stable" means that the enamine structure was retained even after 6 hours.

[3] = Rectal suppositories of AB-PC-Na with enamine derivative, concentration in blood; assay type: in vivo; settings: AB-PC-Na 75mg, enamine derivative 120mg (10%), base SB-W 1005mg, dog
Method: These suppositories were rectally administered to dogs and the absorbabilities of the active components were investigated by measuring the blood concentrations. The blood concentrations were measured in conformity with the biological assay method in the Antibiotic Standard of Japan. The cup method was employed with Sarcina lutea for penicillins and Bacillus subtilis for cephalosporins.

[4] = Rectal suppositories of CET-Na with enamine derivative, concentration in blood; assay type: in vivo; settings: dog
Method: These suppositories were rectally administered to dogs and the absorbabilities of the active components were investigated by measuring the blood concentrations.
The blood concentrations were measured in conformity with the biological assay method in the Antibiotic Standard of Japan. The cup method was employed with Sarcina lutea for penicillins and Bacillus subtilis for cephalosporins.

[5] = Rectal insulin suppositories (Recipes 35-41), glucose response; assay type: in vivo; settings: rectal suppository 6 I.U. insulin, enamine derivative 0.025g (5%)
From the text: These suppositories were rectally administered to rabbits (R, 2.5-3kg) and dogs (D, 12-13kg).

[6] = CET-Na 500mg, enamine derivative 150mg (10%), base Witepsol H-15 850mg
[7] = CET-Na 75mg, enamine derivative 60mg (5%), base Witepsol H-15 1065mg
[8] = CET-Na 75mg, enamine derivative 120mg (10%), base Witepsol H-15 1005mg
[9] = CET-Na 75mg, enamine derivative 60mg (5%), base SB-W 1065mg

Row | AUC [1] [µg·min/mL] | Peak blood concentration [1] [µg/mL] | Structure (SMILES) | half-life t 0.5 [2] | Blood glucose response (6 I.U.) ([5]; rabbit 2.5-3kg) | Time course: Lowest level ([5]; rabbit 2.5-3kg) [min] | Time course: Onset ([5]; rabbit 2.5-3kg) [min] | Time course: Return to pre-medication level ([5]; rabbit 2.5-3kg) [min] | other results
1 | 102 | 1.8 | CCOC(=O)C=C(C)NCC(=O)NCC(=O)[O-].[Na+] [Compound 15, N-(1-Methyl-2-ethoxycarbonylvinyl)glycylglycine sodium salt] | 31.8 min | – | – | – | – | –
2 | – | – | CCOC(=O)C=C(C)N[C@@H](CCC(=O)[O-])C(=O)[O-].[Na+].[Na+] [Compound 16, N-(1-Methyl-2-ethoxycarbonylvinyl)-L-glutamic acid sodium salt] | 16.3 min | – | – | – | – | Concentration in blood, 15 min. [3]: 690 ng/mL; Concentration in blood, 30 min. [3]: 480 ng/mL; Concentration in blood, 60 min. [3]: 520 ng/mL; Concentration in blood, 120 min. [3]: 290 ng/mL
3 | – | – | CCOC(=O)C=C(C)NC(Cc1ccccc1)C(=O)[O-].[Na+] (racemic) [Compound 10, N-(1-Methyl-2-ethoxycarbonylvinyl)-DL-phenylalanine sodium salt] | 15.7 min | – | – | – | – | Concentration in blood, 15 min. [4, 6]: 15300 ng/mL; Concentration in blood, 30 min. [4, 6]: 11730 ng/mL; Concentration in blood, 60 min. [4, 6]: 6750 ng/mL; Concentration in blood, 120 min. [4, 6]: 2200 ng/mL
4 | 396 | 8.7 | CCOC(=O)C=C(C)NCCCC[C@H](NC(C)=CC(=O)OCC)C(=O)[O-].[Na+] [Compound 17, N,N'-Bis(1-methyl-2-ethoxycarbonylvinyl)-L-lysine sodium salt] | 22.9 min | – | – | – | – | –
5 | – | – | CCOC(=O)C(C)OC(=O)C=C(C)N[C@@H](Cc1ccccc1)C(=O)[O-].[Na+] (stereo partly drawn) [Compound 34, N-[1-Methyl-2-(1-ethoxycarbonyl-ethoxycarbonyl)vinyl]-L-phenylalanine sodium salt] | – | 45-55% | 45 to 60 | 15 | 150 | Concentration in blood, 15 min. [4, 7]: 1250 ng/mL; Concentration in blood, 30 min. [4, 7]: 830 ng/mL; Concentration in blood, 60 min. [4, 7]: 610 ng/mL; Concentration in blood, 120 min. [4, 7]: 390 ng/mL
6 | – | – | CCOC(=O)CNC(=O)C=C(C)N[C@@H](Cc1ccccc1)C(=O)[O-].[Na+] [Compound 37, N-(1-Methyl-2-ethoxycarbonylmethylcarbamoyl-vinyl)-L-phenylalanine sodium salt] | – | 20-30% | 30 to 60 | 30 | 120 | Concentration in blood, 15 min. [4, 8]: 1500 ng/mL; Concentration in blood, 30 min. [4, 8]: 1280 ng/mL; Concentration in blood, 60 min. [4, 8]: 870 ng/mL; Concentration in blood, 120 min. [4, 8]: 440 ng/mL
7 | – | – | CCOC(=O)C(C)OC(=O)C=C(C)NCC(=O)[O-].[Na+] (stereo not drawn) [Compound 32, N-[1-Methyl-2-(1-ethoxycarbonyl-ethoxycarbonyl)vinyl]glycine sodium salt] | – | 45-55% | 45 to 60 | 15 | 150 | Blood glucose response (6 I.U.) ([5]; dog 12-13kg): 30-40%; Time course: Lowest level ([5]; dog 12-13kg): 30 to 60 min; Time course: Onset ([5]; dog 12-13kg): 30 min; Time course: Return to pre-medication level ([5]; dog 12-13kg): 120 min; Concentration in blood, 15 min. [4, 9]: 1500 ng/mL; Concentration in blood, 30 min. [4, 9]: 1120 ng/mL; Concentration in blood, 60 min. [4, 9]: 730 ng/mL; Concentration in blood, 120 min. [4, 9]: 400 ng/mL
8 | – | – | CC(N[C@@H](C(=O)[O-])c1ccccc1)=C1CCOC1=O.[Na+] [Compound 6, N-[1-(Tetrahydro-2-furanone-3-ylidene)ethyl]-D-phenylglycine sodium salt] | 478 min | – | – | – | – | –
9 | – | – | CCCCOC(=O)C1=C(N[C@@H](C(=O)[O-])c2ccccc2)CCC1.[Na+] [Compound 7, N-(2-Butoxycarbonyl-1-cyclopenten-1-yl)-D-phenylglycine sodium salt] | Stable | – | – | – | – | –
10 | 49 | 3.8 | CCOC(=O)C=C(C)N[C@@H](C(=O)OC)c1ccccc1 [Compound 8, Methyl-N-(1-methyl-2-ethoxycarbonylvinyl)-D-phenylglycinate] | – | – | – | – | – | –
